Literature values as cited in patent US8492370B2, “Compounds and methods for their production” (Bristol-Myers Squibb Company, priority 2006, dated 2013).

Experiments:
[1] = biological target: Hsp90 (Homo sapiens, UniProt P07900)
[2] = tested on: SKBr3; conditions: compared with geldanamycin and 17-AAG
[3] = tested on: Reverse transcriptase
[4] = biological target: terminal deoxynucleotidyl transferase (Homo sapiens, UniProt P04053)
Chain of terminal deoxynucleotidyl transferase (P04053 whole entry, species assumed): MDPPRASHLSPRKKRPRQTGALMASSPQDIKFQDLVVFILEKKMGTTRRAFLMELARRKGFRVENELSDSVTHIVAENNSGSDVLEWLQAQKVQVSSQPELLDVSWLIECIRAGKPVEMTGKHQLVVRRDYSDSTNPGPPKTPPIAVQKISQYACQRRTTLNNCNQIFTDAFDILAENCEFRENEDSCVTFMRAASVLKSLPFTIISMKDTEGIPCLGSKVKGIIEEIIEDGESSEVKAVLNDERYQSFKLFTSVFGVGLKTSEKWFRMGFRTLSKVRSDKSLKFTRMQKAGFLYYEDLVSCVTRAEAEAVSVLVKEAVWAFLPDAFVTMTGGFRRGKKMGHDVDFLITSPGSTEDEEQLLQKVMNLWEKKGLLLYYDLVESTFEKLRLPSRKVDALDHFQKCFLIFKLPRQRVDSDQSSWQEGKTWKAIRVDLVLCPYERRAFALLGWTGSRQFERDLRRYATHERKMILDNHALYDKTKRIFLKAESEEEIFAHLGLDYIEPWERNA

Row | Structure (SMILES) | binding affinity to Hsp90, fold greater than 17-AAG ([1]; relative to 17-AAG) | binding affinity to Hsp90, fold greater than geldanamycin ([1]; relative to geldanamycin) | IC50 measurement using SKBr3 [2] | Reverse transcriptase activity inhibition [3] | terminal deoxynucleotidyl transferase activity inhibition [4]
1 | CO[C@H]1C[C@H](C)Cc2cc(O)cc(c2)NC(=O)/C=C/CC[C@H](OC)[C@@H](OC(N)=O)/C(C)=C/[C@H](C)[C@H]1O [KOSN1559] | 8 fold | 4 fold | not reflected in an improvement |  | 
2 | CO[C@H]1[C@@H](OC)C[C@H](C)[C@@H](OC)C2=CC(=O)C=C(NC(=O)/C(C)=C/C=C\[C@H](C)[C@@H](OC(N)=O)/C(C)=C/[C@@H]1C)C2=O [macbecin] |  |  |  | not inhibited | not inhibited
